# Assay results published in US7875631B2, “Tetrahydroisoquinoline-and tetrahydrobenzazepine derivatives as igf-1 r inhibitors” (Analytecon S.A., priority 2004, dated 2011).
# Tests used:
# Jurkat cells = assay: Cell death by apoptosis, Annexin V staining, Jurkat; type: cell-based, human; settings: for percentage of Annexin-V positive cells: Jurkat, 500 ng/ml
# Experimental: (§1) Jurkat and SK-MEL 28 cells were incubated with the compound (I) from example 3 for 6, 24 and 48 hours, after which the percentage of apoptotic cells were determined by Annexin V staining.
# (§2) The numbers depicted in the Table represent the percentage of Annexin-V positive cells.
# SK-Mel-28 cells = assay: Interaction with cell division, mitotic index; type: cell-based, human; settings: four hours (vehicle 1.7)
# Experimental: The mitotic index was determined after incubation of SK-Mel-28 cells with vehicle, the compound (I) of example 3 and nocodazole for four hours [essentially as described by C. L. Rieder et al.: Current Biology 10(2000) 1067-1070].
# SK-MEL 28 cells = assay: Cell death by apoptosis, Annexin V staining, SK-MEL 28; type: cell-based, human; settings: 500 ng/ml
# Experimental: as §1, §2
# insulin receptor (IR) = target: T1, insulin receptor (IR) (Homo sapiens, UniProt P06213); assay: Inhibition of phosphorylation of insulin receptor (IR) in SK-MEL-28; type: cell-based; settings: 1 microgram/ml, 2 hours
# T1 construct: endogenous in cells; host or cells: SK-MEL-28
# Experimental: SK-MEL-28 cells (density 60000/cm^2) were grown in 100 mm diameter dishes containing 10 ml RPMI 1640 supplemented with 10% fetal bovine serum (FBS) for 24 hours. After 24 hours fresh medium supplemented with 10% FBS was added together with or without 1 microgram/ml of compound 33. The dishes were incubated at 37° C. for 2 hours, after which the cells were lyzed and subjected to immunoprecipitation using 2 microliter of an anti-IR monoclonal antibody (18-44, ABCAM) and 20 microliter of agarose-conjugated protein G. Antibody-antigen complexes were allowed to form for 4 hours at 4° C. and after that collected by centrifugation at 4° C. for 1 minute at 5000 rpm. Immunoprecipitated complexes were separated by electrophoresis on an 8% polyacrylamide gel and electroblotted onto a nitrocellulose membrane (Amersham Bioscience). The efficiency of the immunoprecipitation was determined by using a polyclonal antibody against the beta-subunit of the insulin receptor (C-19; Santa Cruz Biotech.). Detection of the tyrosine phosphorylation of the insulin receptor was performed by incubation of the nitrocellulose membranes with an anti-phosphotyrosine antibody (4G10, Upstate Biotechnology Ltd., UK). […]
# IGF-1R = target: T2, IGF-1R (Homo sapiens, UniProt P08069); assay: Inhibition of phosphorylation of IGF-1R in SK-MEL-28; type: cell-based; settings: compound 1000 ng/ml for 2 hours, IGF-1 20 ng/ml for 5 minutes; IGF-1 alone = 100
# T2 construct: endogenous in cells; host or cells: SK-MEL-28
# Experimental: IGF-1R: Assay without treatment with compounds (I). (Essentially as described by M. Rubini et al. Exp. Cell Res. 230(1997) 284-292).
# SK-MEL-28 cells (density 60000/cm^2; 100 mm diameter dish containing 10 ml RPMI 1640) were starved for 24 hours at 37° C. and thereafter treated for 5 minutes at 37° C. with IGF-1 (200 ng, Sigma). Untreated cells served as control. The cells were lyzed and subjected to immunoprecipitation using a specific antibody against IGF-1R (alfa-IR3, Oncogene Science). Immunoprecipitates were separated by polyacrylamide gel electrophoresis and transferred to nitrocellulose membranes (Amersham Bioscience). The immunoprecipitated IGF-1 receptor was located on the nitrocellulose membrane using an antibody against the alfa-subunit of the IGF-1R (N-20:sc-712, Santa Cruz Biotech.). Detection of the tyrosine phosphorylation of the IGF-1 receptor was performed by incubation of the nitrocellulose membranes with an anti-phosphotyrosine antibody (4G10, Upstate Biotechnology Ltd., UK). To reveal the anti-IGF-1R rabbit polyclonal antibody and the anti-phosphotyrosine mouse monoclonal antibody, the membranes were incubated with anti-rabbit IgG and anti-mouse IgG antibodies coupled to HRP, respectively, and visualized by the use of an enhanced chemiluminescence (ECL) detection system (Pierce). […]
# T2 sequence (P08069 31-1367): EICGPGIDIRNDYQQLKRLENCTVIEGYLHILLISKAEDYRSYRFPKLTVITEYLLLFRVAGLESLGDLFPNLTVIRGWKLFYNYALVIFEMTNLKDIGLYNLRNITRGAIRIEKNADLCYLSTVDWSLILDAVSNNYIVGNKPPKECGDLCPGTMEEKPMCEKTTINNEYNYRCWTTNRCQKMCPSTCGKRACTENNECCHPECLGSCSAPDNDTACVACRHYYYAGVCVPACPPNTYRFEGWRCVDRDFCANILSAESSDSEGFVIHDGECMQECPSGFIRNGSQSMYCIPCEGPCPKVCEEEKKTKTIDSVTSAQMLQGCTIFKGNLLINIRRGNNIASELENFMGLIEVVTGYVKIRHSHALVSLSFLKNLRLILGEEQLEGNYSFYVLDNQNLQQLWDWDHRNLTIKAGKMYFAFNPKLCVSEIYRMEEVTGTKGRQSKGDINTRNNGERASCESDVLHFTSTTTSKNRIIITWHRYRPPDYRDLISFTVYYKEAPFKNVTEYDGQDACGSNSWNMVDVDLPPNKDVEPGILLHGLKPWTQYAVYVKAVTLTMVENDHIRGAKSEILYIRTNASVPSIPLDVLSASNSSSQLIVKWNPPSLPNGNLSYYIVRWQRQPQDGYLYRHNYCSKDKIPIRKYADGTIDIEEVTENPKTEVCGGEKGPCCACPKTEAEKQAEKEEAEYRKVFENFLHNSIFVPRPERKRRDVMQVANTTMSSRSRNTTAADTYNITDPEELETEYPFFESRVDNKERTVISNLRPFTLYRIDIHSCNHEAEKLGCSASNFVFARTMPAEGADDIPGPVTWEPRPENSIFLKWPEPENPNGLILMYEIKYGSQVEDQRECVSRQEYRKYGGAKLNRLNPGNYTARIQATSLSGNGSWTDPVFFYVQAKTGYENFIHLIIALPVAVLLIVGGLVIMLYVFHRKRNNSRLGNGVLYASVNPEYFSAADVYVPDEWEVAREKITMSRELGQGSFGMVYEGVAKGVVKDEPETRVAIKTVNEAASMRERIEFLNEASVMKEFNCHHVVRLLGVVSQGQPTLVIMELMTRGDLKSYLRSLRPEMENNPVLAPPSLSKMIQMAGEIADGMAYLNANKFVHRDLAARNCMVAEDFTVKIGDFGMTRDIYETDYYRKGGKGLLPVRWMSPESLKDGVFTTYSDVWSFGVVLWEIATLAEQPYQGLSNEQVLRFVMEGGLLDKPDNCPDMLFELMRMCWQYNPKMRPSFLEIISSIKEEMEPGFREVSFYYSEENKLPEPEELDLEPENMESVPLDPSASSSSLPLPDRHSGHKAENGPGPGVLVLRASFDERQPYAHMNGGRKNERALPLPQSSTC
# T1 sequence (P06213 28-1382): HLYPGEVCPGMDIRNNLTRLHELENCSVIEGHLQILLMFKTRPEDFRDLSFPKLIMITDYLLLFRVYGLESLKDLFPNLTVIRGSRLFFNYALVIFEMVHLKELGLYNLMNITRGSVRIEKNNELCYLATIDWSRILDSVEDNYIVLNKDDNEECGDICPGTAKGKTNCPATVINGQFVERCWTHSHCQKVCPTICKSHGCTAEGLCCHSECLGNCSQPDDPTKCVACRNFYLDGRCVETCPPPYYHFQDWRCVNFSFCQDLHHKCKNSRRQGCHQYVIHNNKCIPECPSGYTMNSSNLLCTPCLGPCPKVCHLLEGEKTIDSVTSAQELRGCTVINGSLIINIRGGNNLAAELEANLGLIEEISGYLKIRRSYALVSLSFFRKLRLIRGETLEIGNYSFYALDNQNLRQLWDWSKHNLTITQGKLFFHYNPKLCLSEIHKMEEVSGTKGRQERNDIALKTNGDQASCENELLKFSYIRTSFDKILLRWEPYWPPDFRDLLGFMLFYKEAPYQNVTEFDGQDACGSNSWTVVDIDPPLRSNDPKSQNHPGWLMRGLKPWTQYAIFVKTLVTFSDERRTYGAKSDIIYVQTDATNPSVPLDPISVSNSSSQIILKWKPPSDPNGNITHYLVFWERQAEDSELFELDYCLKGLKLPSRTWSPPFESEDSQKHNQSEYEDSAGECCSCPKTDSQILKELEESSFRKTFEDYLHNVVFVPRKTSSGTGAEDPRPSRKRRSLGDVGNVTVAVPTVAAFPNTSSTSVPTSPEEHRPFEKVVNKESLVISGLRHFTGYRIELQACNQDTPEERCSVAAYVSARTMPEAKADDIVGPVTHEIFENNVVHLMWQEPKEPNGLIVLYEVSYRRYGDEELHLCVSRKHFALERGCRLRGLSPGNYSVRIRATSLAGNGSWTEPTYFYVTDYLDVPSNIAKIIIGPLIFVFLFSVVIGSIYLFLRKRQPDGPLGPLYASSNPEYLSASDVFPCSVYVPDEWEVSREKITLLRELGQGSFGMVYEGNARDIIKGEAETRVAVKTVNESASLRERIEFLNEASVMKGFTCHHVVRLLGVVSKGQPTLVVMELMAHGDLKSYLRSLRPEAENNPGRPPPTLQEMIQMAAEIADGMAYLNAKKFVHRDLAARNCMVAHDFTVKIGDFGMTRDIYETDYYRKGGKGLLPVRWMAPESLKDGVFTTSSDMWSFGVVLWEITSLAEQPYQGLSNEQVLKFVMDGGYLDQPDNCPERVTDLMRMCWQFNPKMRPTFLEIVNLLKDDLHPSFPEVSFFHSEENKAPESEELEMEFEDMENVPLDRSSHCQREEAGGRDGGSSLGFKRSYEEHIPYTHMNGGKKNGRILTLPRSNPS
structure (smiles),measurement,setting,value
"COc1ccc2c(c1)CCN(C(C)=O)C2c1cc(OC)c(OC)c(OC)c1 (racemic) [Example 3, 1-(3,4,5-trimethoxyphenyl)-2-acetyl-6-methoxy-1,2,3,4-tetrahydroisoquinoline]",percentage of Annexin-V positive cells,Jurkat cells; 6 hours,8%
same,percentage of Annexin-V positive cells,Jurkat cells; 24 hours,89%
same,induction of apoptosis,"Jurkat cells; tested cell lines (Jurkat and SK-MEL 28), slower kinetics than SuperFasL",induces apoptosis
same,mitotic index SK-Mel-28,SK-Mel-28 cells; 300 ng/ml,5
same,percentage of Annexin-V positive cells,"SK-MEL 28 cells; SK-Mel-28, 6 hours",8%
same,percentage of Annexin-V positive cells,"SK-MEL 28 cells; SK-Mel-28, 24 hours",16%
same,percentage of Annexin-V positive cells,"SK-MEL 28 cells; SK-Mel-28, 48 hours",70%
"COc1ccc2c(c1)CCN(C#N)C2c1cc(OC)c(OC)c(OC)c1 (single isomer, unassigned; (-)) [Example 33, (−)-1-(3,4,5-trimethoxyphenyl)-2-cyano-6-methoxy-1,2,3,4-tetrahydroisoquinoline]",difference in phosphorylation of the insulin receptor versus untreated cells,insulin receptor (IR),No difference
"COc1ccc2c(c1)CCCN(C)C2c1cc(OC)c(OC)c(OC)c1.Cl (stereo not shown) [Example 31, 1-(3,4,5-trimethoxyphenyl)-2-methyl-7-methoxy-2,3,4,5-tetrahydro-1H-2-bezazepine hydrochloride]",% phosphorylation of IGF-1R in SK-MEL-28 cells,IGF-1R,10%
"COC(=O)Nc1nc2ccc(C(=O)c3cccs3)cc2[nH]1 [Nocodazole, reference compound]",mitotic index SK-Mel-28,SK-Mel-28 cells; 10 μM,2.9
